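Grown in 96-well plates, cells were treated for 48 hours with each compound at five concentrations. Insufficient inhibition: endpoint recorded as highest concentration tested. TGI denotes the concentration required for complete inhibition of growth.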
Legend:
Test in all cases: NCI anticancer screen, dose series, 48 h
[1] = tested on: IGROV1 ovarian
[2] = tested on: UACC-257 melanoma
[3] = tested on: SN12C renal
[4] = tested on: NCI/ADR-RES ovarian
[5] = tested on: SNB-19 CNS
[6] = tested on: SW-620 colon
[7] = tested on: SK-MEL-28 melanoma
[8] = tested on: HCT-116 colon
[9] = tested on: SNB-75 CNS
[10] = tested on: SK-OV-3 ovarian
[11] = tested on: EKVX NSCLC
[12] = tested on: MALME-3M melanoma
[13] = tested on: M14 melanoma
[14] = tested on: HT29 colon
[15] = tested on: HCC-2998 colon
[16] = tested on: HS 578T breast
[17] = tested on: SK-MEL-2 melanoma
[18] = tested on: RXF 393 renal
[19] = tested on: A549 NSCLC
[20] = tested on: SF-539 CNS
[21] = tested on: SF-295 CNS
[22] = tested on: A498 renal
[23] = tested on: KM12 colon
[24] = tested on: MCF7 breast
[25] = tested on: MDA-MB-231 breast
[26] = tested on: PC-3 prostate
[27] = tested on: SK-MEL-5 melanoma
[28] = tested on: 786-0 renal
[29] = tested on: SR leukemia
[30] = tested on: MOLT-4 leukemia
[31] = tested on: NCI-H460 lung
[32] = tested on: BT-549 breast
[33] = tested on: SF-268 CNS
[34] = tested on: CAKI-1 renal
[35] = tested on: OVCAR-5 ovarian
[36] = tested on: UO-31 renal
[37] = tested on: OVCAR-4 ovarian
[38] = tested on: NCI-H522 lung
[39] = tested on: TK-10 renal
[40] = tested on: U251 CNS
[41] = tested on: K-562 leukemia
[42] = tested on: MDA-N
[43] = tested on: HOP-62 NSCLC
[44] = tested on: NCI-H23 lung
[45] = tested on: OVCAR-8 ovarian
[46] = tested on: COLO 205 colon
[47] = tested on: DU-145 prostate
[48] = tested on: T-47D breast
[49] = tested on: OVCAR-3 ovarian
[50] = tested on: MDA-MB-435
[51] = tested on: LOX IMVI melanoma
[52] = tested on: HL-60(TB) leukemia
[53] = tested on: CCRF-CEM leukemia
[54] = tested on: UACC-62 melanoma
[55] = tested on: HCT-15 colon
[56] = tested on: ACHN renal
[57] = tested on: RPMI-8226 leukemia
[58] = tested on: HOP-92 NSCLC
[59] = tested on: NCI-H226 lung

Measured: TGI

Clc1cc(OCC23CC4CC(CC(C4)C2)C3)nc(OCC23CC4CC(CC(C4)C2)C3)n1
> 100 µM: [1] | [2] | [3] | [4] | [5] | [6] | [7] | [8] | [9] | [10] | [11] | [12] | [13] | [14] | [15] | [16] | [17] | [18] | [19] | [20] | [21] | [22] | [23] | [24] | [25] | [26] | [27] | [28] | [29] | [30] | [31] | [32] | [33] | [34] | [35] | [36] | [37] | [38] | [39] | [40] | [41] | [42] | [43] | [44] | [45] | [46] | [47] | [48] | [49] | [50] | [51] | [52] | [53] | [54] | [55] | [56] | [57]

O=C(CCc1ccc(O)c(O)c1)NCCc1ccc(O)c(O)c1
31 µM: [40]
33.7 µM: [37]
78.3 µM: [53]
31.8 µM: [50]
73.9 µM: [25]
32.4 µM: [45]
> 100 µM: [1] | [2] | [3] | [4] | [5] | [6] | [7] | [8] | [9] | [10] | [11] | [12] | [13] | [14] | [15] | [16] | [17] | [18] | [19] | [20] | [21] | [22] | [23] | [58] | [26] | [27] | [30] | [31] | [32] | [33] | [59] | [35] | [36] | [38] | [39] | [41] | [43] | [44] | [46] | [47] | [48] | [49] | [51] | [52] | [54] | [55] | [56] | [57]
74.1 µM: [29]
33.8 µM: [28]
33.9 µM: [42]
45.4 µM: [24]

Source: PubChem BioAssay (NCI)
